The source of these data is patent publication US6541483B2, “Acridone-derived compounds useful as antineoplastic and antiretroviral agents” (The United States of America as represented by the …, priority 1996, dated 2003).

Where two headings read alike, the source gives them in different places.

Data set [1] has as its system HIV-1 LTR-directed chloramphenicol acetyltransferase (CAT) activity. The data set can be described thus: LTR-directed CAT activity in BF-24 cells. Format: cell-based. The note with it: 24 h, temacrazine up to 5 μM. An excerpt:
Initiation and regulation of HIV-1 transcription requires a complex series of interactions with cellular transcription factors, such as NFkB, SP-1 and AP-1, and the participation of cellular factors in the transcriptional complex. In addition, the post-integrative model used here requires TNFα stimulated U1 and ACH-2 cells, this model requires not only the participation of the NFkB transcriptional complex, and also components of the TNFα signaling pathway. In order to rule out that temacrazine was non-specifically effecting transcription or down-regulating replication by interfering with the TNFα signal pathway, LTR-directed chloramphenicol acetyltransferase (CAT) activity was measured in BF-24 cells. BF-24 cells are derived from the THP-1 monocytic cell line and carry a stably integrated CAT gene under the transcriptional control of the HIV-1 LTR (S. Schwartz, et al., Proc. Natl. Acad. Sci. USA 86:7200 (1989); B. K. Felber, et al., Science 239:184 (1988)). The LTR in this monocytic cell line is inducible by IL-6, PMA and TNFα, and produces enzymatically active chloramphenicol transferase (“CAT”). […]
CAT activity was determined using a fluorescent Bodipy conjugated chloramphenicol after 18 h of reaction with 50 μg of protein extract containing Acetyl CoA.

For data set [2], the system named is cell lines derived from tumor xenografts. The data set is described as follows: clonogenic assay, mean over all tumor xenograft lines. The format is cell-based, human. Conditions: all of the lines tested. As for the experimental part: (§1) The activity of compound (4) was tested against several tumor xenografts in vitro. The experiments was carried out on cell lines derived from these tumors, utilizing a standard clonogenic assay protocol.
(In general: Xenograft models place foreign cells or tissue in a host animal.)

Data set [3] relates to prostate cancer cell line PRXF (DU145X/2). The data set can be described thus: clonogenic assay, prostate cancer line DU145X. Format: cell-based, human. As for the experimental part:
as §1

Data set [4] concerns gastric carcinoma GFX (251/14). The data set is described as follows: clonogenic assay, gastric carcinoma line. Format: cell-based, human. As for the experimental part:
as §1

Data set [5] has as its system mammary tumor MACL (MCF7X/13). The data set is described as follows: clonogenic assay, mammary tumor line. The format is cell-based, human. As for the experimental part: as §1
The test system of the next data set is melanoma MEXF (514/12). The data set can be described thus: clonogenic assay, melanoma line. Format: cell-based, human. As for the experimental part:
as §1

In data set [6] the test system is renal carcinoma RXF (1220/5). The data set can be described thus: clonogenic assay, renal carcinoma line. The format is cell-based, human. As for the experimental part: as §1
Data set [7] concerns prostate cancer cell line PRXF (PX2M/27), PC3M. The data set can be described thus: clonogenic assay, prostate cancer line PC3M. Format: cell-based, human. As for the experimental part: as §1
In another data set the test system is HIV-1ADA. The data set can be described thus: anti-HIV-1 activity in monocyte/macrophage cultures. Format: cell-based. The note with it: Human immunodeficiency virus 1, read-out: Mo/Mφ EC50. As for the experimental part: (§2) The antiviral properties of the WMC series of compounds were evaluated. First, all compounds were tested for their ability to inhibit HIV-1 replication in cell culture using the XTT cytoprotection assay. This assay measures the concentration-dependent capacity of compounds to protect CEM-SS cells from the cytopathic effects of HIV-1. […] Thus, temacrazine was the most efficacious compound in the XTT cytoprotection assay. This conclusion was also reached when the compounds were tested for anti-HIV-1 activity against HIV-1ADA in human monocyte/macrophage cultures (Table 1).

Data set [8] deals with attachment of HIV-1RF to CEM-SS cells. The data set is described as follows: attachment of virions to CEM-SS cells (cell-bound p24 ELISA). The format is cell-based. The note with it: Human immunodeficiency virus 1, CEM-SS, read-out: Attachment ID50. From the text:
(§3) Based on the findings thus far our efforts have focused on biological assays of the temacrazine congener.
A general note: In an ELISA, binding on a coated surface is turned into a signal by an enzyme label.

The subject of data set [9] is HIV-1. The data set can be described thus: XTT cytoprotection assay in CEM-SS cells (antiviral EC50). The note with it: for XTT Assay EC50: Table 1; for cytoprotective activity: HIV-1-infected CEM SS leukemia cells. Format: cell-based.
Text: (§4) Briefly, the infected cells in culture are killed by the virus, and the cytotoxicity is detected by the formation of color due to the […] of a formazan dye (XTT) by enzymes released by the dying cells (Weislow et al., J. Natl. Cancer Inst. 81:577-586, 1989). An effective antiviral drug is able to protect the infected cells from cytotoxicity by inhibiting some vital function of the virus. […] FIGS. 4 and 5 show the cytoprotective activity of WMC26 and WMC42. Since many drugs can also be toxic to cells in their own right, a parallel experiment is carried out wherein uninfected cells are treated with the drugs until a concentration is reached where the cells are killed by the action of the drug.
(§5) As a result of these preliminary data, additional experiments were carried out to establish the antiviral activity in other cell lines, using a variety of protocols. The preliminary experiments in lymphocytes were confirmed using infected macrophages. Much more extensive experiments were carried out in HIV-1-infected CEM SS leukemia cells. […] However, two derivatives were found which had low antileukemic activity while maintaining high antiviral activity. […] This gives a therapeutic index of more than 3 orders of magnitude. The corresponding therapeutic index for WMC50 is about 100-200, which is quite acceptable. Additional experiments were carried out on WMC-70. […] Further, WMC-70 appears to affect post-transcription events in the virus. […] While the inhibition of integration appears to be the principal mechanism by which this compound exerts its antiviral activity, there are perhaps other mechanisms which are also involved in the therapeutic action of this drug, and by extension, of other antiviral drugs of this class.
as §2
(In general: Formazan colour is commonly taken as a measure of viable cells.)

Data set [10] concerns the target HIV-1 reverse transcriptase (Human immunodeficiency virus type 1 group M subtype B, UniProt P04585). The data set is described as follows: reverse transcriptase enzyme activity. Format: biochemical.
Text: as §3

In data set [11] the test system is human monocyte/macrophage cultures. The data set can be described thus: toxicity in monocyte/macrophage cultures. The format is cell-based. Conditions: Homo sapiens, read-out: Mo/Mφ IC50. As for the experimental part: as §2
The test system of another data set is CEM-SS cells. The data set can be described thus: XTT assay toxicity in CEM-SS cells (IC50). Format: cell-based. Conditions: Homo sapiens, CEM-SS.
Text: as §4, §5, §2

For data set [12], the target named is p7 nucleocapsid protein zinc fingers (Human immunodeficiency virus type 1 group M subtype B, UniProt P04591). The data set is described as follows: p7NC zinc finger fluorescence assays (TSQ, Trp37). The format is biochemical, HIV-1.
Text: as §3

A further data set concerns the target HIV-1 integrase (Human immunodeficiency virus type 1 group M subtype B, UniProt P04585). The data set is described as follows: in vitro integration and disintegration with full length purified integrase. The format is biochemical. The note with it: full length purified HIV-1 integrase. Set-up: utilized the full length purified HIV-1 integrase.
For a further data set, the system named is leukemia. Conditions: Cholody et al. 1995; cited from earlier work.
The test system of data set [13] is HIV-1. The data set is described as follows: XTT cytoprotection assay in HIV-1 infected peripheral blood lymphocytes. The format is cell-based. The note with it: for cytoprotective activity: HIV-1 infected lymphocytes versus uninfected cells; for therapeutic index: lymphocyte cytoprotection assay.
Text: These compounds and several others were then examined in a cytoprotection assay involving peripheral blood lymphocytes which had been infected with HIV-1.
as §4

A further data set deals with HIV-1RF. The data set is described as follows: nude mouse hollow fiber model of HIV-1 replication. Format: in vivo, nude mice. The note with it: 40 mg/Kg q8h intraperitoneally. From the text: The novel mechanism of action of temacrazine and its broad range of activity against HIV-1 and its high therapeutic indexes led us to assess its in vivo and anti-viral properties in a nude mouse hollow fiber model of HIV-1 replication. Briefly, CEM-SS cells are infected with HIV-1RF and placed into hollow fibers and implanted intraperitoneal or subcutaneously into nude mice. […] Similarly, mice are being treated by oral and intravenous administration of temacrazine. Peritoneal washes and serum samples were collected and p24 expression determined by antigen capture. Intraperitoneal administration of temacrazine reduced the amount of detectable p24 in peritoneal washes by 5 to 10 fold independently of the dosage schedule. […] Thus, temacrazine reduces HIV-1 replication in vivo.

For `Cc1cn([C@H]2C[C@H](N=[N+]=[N-])[C@@H](CO)O2)c(=O)[nH]c1=O` [AZT, reference compound], the “CAT induction by TNFα” value in data set [1] was “inactive”.
As to `O=c1c2ccccc2n2cnc3ccc(NCCCN4CCN(CCCNc5ccc6ncn7c8ccccc8c(=O)c5c67)CC4)c1c32` [Compound 4, 1,4-bis[3-[(6-oxo-6H-imidazo[4,5,1-de]-acridin-5-yl)amino]propyl]piperazine], the “mean IC70 (concentration resulting in 70% killing of the tumor cells)” value in [2] came to 2.3 µg/mL. For the same compound, the “sensitivity to the drug” value in data set [3] is “very sensitive”; in data set [4] it was “sensitive at the median dose”; in data set [5], “over twice the median dose”; in the data set with melanoma MEXF (514/12), “completely insensitive”; in data set [6] it was “completely insensitive”; in data set [7] (PRXF PX2M/27), “very sensitive”. In addition, the IC70 result in [7] (PC3M) is given as “less than 1 nanogram/mL”.
Take `CN(CCCNc1ccc2ncn3c4ccccc4c(=O)c1c23)CCCNc1ccc2ncn3c4ccccc4c(=O)c1c23` [Compound 682401]: the EC50 with HIV-1ADA stood at 50 nM. Further, the IC50 in data set [8] was greater than 100000 nM; in data set [10], greater than 100000 nM; in [11], 1000 nM. For the same compound, in the data set on HIV-1 [9] (CEM-SS cells), the “XTT Assay EC50” value is given as “Inactive”.
Turning to `CN(CCCNc1ccc2ncn3c4ccccc4c(=O)c1c23)CCCNc1ccc2nnn3c4ccccc4c(=O)c1c23` [Compound 682402], the EC50 in the data set on HIV-1ADA came out at 160 nM. Also, the results for the IC50 in [8], in [10] and in data set [11] were greater than 100000 nM, greater than 100000 nM and 10000 nM, respectively. For the same compound, the “XTT Assay EC50” value with HIV-1 [9] (CEM-SS cells) is reported as “Inactive”.
Consider `CN(CCCNc1ccc2nnn3c4ccccc4c(=O)c1c23)CCCNc1ccc2nnn3c4ccccc4c(=O)c1c23` [Compound 682403], for which the “XTT Assay EC50” value with HIV-1 [9] (CEM-SS cells) is “Inactive”.
On to `O=c1c2ccccc2n2cnc3ccc(NCCCN4CCN(CCCNc5ccc6nnn7c8ccccc8c(=O)c5c67)CC4)c1c32` [Compound 682404], for which the EC50 was 100 nM in the data set with HIV-1ADA; 0.41 nM with HIV-1 [9] (Human immunodeficiency virus 1, CEM-SS, read-out: XTT Assay EC50); 0.41 nM in the data set with HIV-1 [9] (Human immunodeficiency virus 1, CEM-SS cells, read-out: EC50 antiviral value, XTT cytoprotection assay). Moreover, the IC50 is 158 nM with CEM-SS cells (read-out: IC50 toxicity value, XTT assay); 158 nM in the data set with CEM-SS cells (read-out: XTT Assay IC50); greater than 100000 nM in data set [8]; 35000 nM in [10]; 10000 nM in data set [11]. Further, the therapeutic index with HIV-1 [9] (CEM SS cells) is 100-200. Moreover, in the data set on HIV-1 [9], the cytoprotective activity entry is given as “cytoprotective at very low concentrations”.
For `Cc1cn([C@H]2C[C@H](N=[N+]=[N-])[C@@H](CO[P@](=O)(O)O[P@](=O)(O)OP(=O)(O)O)O2)c(=O)[nH]c1=O` [Compound A2TTP, reference compound], the IC50 in [10] (rAdT Template/primer, control compound, read-out: I50 RT Enzyme Activity) stood at 27 nM.
Regarding `O=S1(=O)C[C@H](O)[C@H](O)CS1` [NSC 624151], in [12], the “NCp7 TSQ (Increase in RFU/90 min)” value is listed as 17 (NSC 624151) RFU/90 min and the “NCp7 Trp37 (Decrease in RFU/10 min)” value is 145 (NSC 624151) RFU/10 min.
In the case of `CC(C)OC(=O)c1cc(NC(=S)OC(C)C)ccc1Cl` [UC38, reference compound], the IC50 in [10] (rCdG Template/primer, control compound, read-out: I50 RT Enzyme Activity) was 6 nM.
Regarding `CN(CCCNc1ccc2ncn3c4ccccc4c(=O)c1c23)CCCNc1ccc2ncn3c4ccccc4c(=O)c1c23` [WMC26], at HIV-1 integrase, the “inhibition of integration and disintegration steps” value is “inhibited both the integration and disintegration steps”. Further, in the data set on leukemia, the cytotoxicity to leukemia entry was “very potently (nanomolar levels) cytotoxic”. In addition, the cytoprotective activity entry in the data set with HIV-1 [9] is “could not be shown to be cytoprotective”. For the same compound, in the data set on HIV-1 [13], the cytoprotective activity entry is listed as “able to protect the infected lymphocytes at concentrations far lower than those which resulted in drug induced killing” and the therapeutic index entry is recorded as “very good therapeutic indices”.
Regarding `CN(CCCNc1ccc2ncn3c4ccccc4c(=O)c1c23)CCCNc1ccc2nnn3c4ccccc4c(=O)c1c23` [WMC42], the “inhibition of integration and disintegration steps” value on HIV-1 integrase is “inhibited both the integration and disintegration steps”. In the data set on HIV-1 [13], the cytoprotective activity result is given as “able to protect the infected lymphocytes at concentrations far lower than those which resulted in drug induced killing” and the therapeutic index entry is recorded as “very good therapeutic indices”.
Take `Nc1ccn([C@H]2CC[C@@H](CO)O2)c(=O)n1` [ddC, reference compound]: in the data set with HIV-1RF, the “Peritoneal Wash p24, mean” value turned out to be 7 pg p24 and the “Serum p24, mean” value was determined as 87 pg p24.
